Assay [1] has as its target T1, Intestinal-type alkaline phosphatase (Mus musculus, UniProt P24822). Description: PubChem AID 488785. The format is functional.
The target of assay [2] is T2, Alkaline phosphatase, tissue-nonspecific isozyme (Homo sapiens, UniProt P05186).
T2 sequence (P05186 whole entry): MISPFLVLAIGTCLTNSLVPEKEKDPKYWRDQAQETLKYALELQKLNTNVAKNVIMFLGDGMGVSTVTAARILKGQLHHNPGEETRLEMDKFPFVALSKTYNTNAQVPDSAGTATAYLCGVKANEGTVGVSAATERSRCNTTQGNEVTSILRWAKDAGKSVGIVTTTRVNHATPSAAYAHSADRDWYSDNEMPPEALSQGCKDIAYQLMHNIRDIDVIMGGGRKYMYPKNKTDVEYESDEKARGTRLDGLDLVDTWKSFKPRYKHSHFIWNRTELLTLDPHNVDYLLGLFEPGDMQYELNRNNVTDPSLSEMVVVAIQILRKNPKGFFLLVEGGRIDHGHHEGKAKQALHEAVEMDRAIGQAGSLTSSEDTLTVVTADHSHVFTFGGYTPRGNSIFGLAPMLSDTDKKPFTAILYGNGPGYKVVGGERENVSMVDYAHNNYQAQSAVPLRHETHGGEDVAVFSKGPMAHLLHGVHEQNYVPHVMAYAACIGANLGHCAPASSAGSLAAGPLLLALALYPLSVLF
As to the kind of experiment: TNAP enzyme inhibition by screening hits, dose response, selectivity assay for mouse IAP inhibitor project, biochemical, human TNAP, uHTS hits (AID 488906). The format is functional.

Assay [3] concerns the target T3, Intestinal-type alkaline phosphatase (Homo sapiens, UniProt P09923). As to the kind of experiment: inhibition of human intestinal alkaline phosphatase – biochemical, dose response (AID 488876). Type of assay: functional.
A further assay has as its target Large T antigen (Simian virus 40, UniProt P03070). The format is functional, Betapolyomavirus macacae.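 Further: Confirmatory-stage PubChem screen for compounds that inhibit SV40 T antigen.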
Assay [4] concerns the target T3, Intestinal-type alkaline phosphatase. Description: activation of human intestinal alkaline phosphatase – biochemical, luminescent, uHTS hits, set 2, dose response (AID 488817).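 Further: potency of activators that raise enzyme activity.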 The format is functional.
Assay [5] deals with T1, Intestinal-type alkaline phosphatase. Description: PubChem AID 488874. The format is functional.
Assay [6] concerns the target T3, Intestinal-type alkaline phosphatase. Description: human intestinal alkaline phosphatase activators, dose response, biochemical, luminescence, uHTS hits (AID 463120). The format is functional.
The target of assay [7] is T2, Alkaline phosphatase, tissue-nonspecific isozyme. As to the kind of experiment: activation of tissue-nonspecific alkaline phosphatase – biochemical, TNAP isozyme, human IAP uHTS hits, selectivity assay for human IAP activator project, dose response (AID 488886).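 Further: potency of compounds raising TNAP activity as a selectivity check on IAP activators.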 The format is functional.
The next assay addresses Phosphomannomutase 2 (Homo sapiens, UniProt O15305). As to the kind of experiment: Counter screen SAR assay for PMM2 inhibitors via a fluorescence intensity assay. [Related pubchem assays (depositor defined):AID1545, AID1574]. Background: The purpose of a counterscreen is to sort out artefacts and off-target activity.
The target in assay [8] is Eukaryotic translation initiation factor 4E (Mus musculus, UniProt P63073). As to the kind of experiment: blockers of eIF4G binding by eIF4E – biochemical, TR-FRET, dose response (AID 855).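 Further: potency for disrupting eIF4E binding to eIF4GI seen as loss of FRET.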 Type of assay: functional. (In general: In TR-FRET formats the signal depends on donor and acceptor labels being close together.)
The target in assay [9] is T4, Mannose-6-phosphate isomerase (Homo sapiens, UniProt P34949).
T4 sequence (P34949 whole entry): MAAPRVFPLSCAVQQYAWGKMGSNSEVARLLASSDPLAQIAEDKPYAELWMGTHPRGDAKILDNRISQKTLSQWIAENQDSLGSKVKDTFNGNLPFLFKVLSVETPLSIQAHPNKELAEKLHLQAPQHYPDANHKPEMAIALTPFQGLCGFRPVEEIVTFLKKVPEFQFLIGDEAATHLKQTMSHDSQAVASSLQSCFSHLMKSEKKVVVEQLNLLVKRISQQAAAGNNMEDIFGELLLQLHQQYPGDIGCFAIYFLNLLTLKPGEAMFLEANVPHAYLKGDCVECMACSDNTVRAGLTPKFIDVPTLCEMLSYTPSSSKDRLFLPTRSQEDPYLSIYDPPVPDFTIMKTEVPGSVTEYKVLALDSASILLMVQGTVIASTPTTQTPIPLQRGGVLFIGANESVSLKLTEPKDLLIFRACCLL
As to the kind of experiment: phosphomannose isomerase inhibition – biochemical, fluorescence intensity, confirmation (AID 1535).

Assay [10] addresses T4, Mannose-6-phosphate isomerase. Description: MPI inhibition at elevated mannose 6-phosphate – biochemical, fluorescence intensity, high mannose 6-phosphate, primary screen (AID 1220).
The target in assay [11] is T5, Mu-type opioid receptor (Homo sapiens, UniProt P35372). Description: mu opioid receptor activators, image-based, SAR follow-up (AID 2352). The format is functional.
Assay [12] concerns the target T6, Kappa-type opioid receptor (Homo sapiens, UniProt P41145). As to the kind of experiment: kappa opioid receptor blockers, image-based, SAR follow-up (AID 2348). Type of assay: functional.
Assay [13] concerns the target T5, Mu-type opioid receptor. As to the kind of experiment: mu opioid receptor blockers – image-based, SAR follow-up (AID 2420).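 Further: compounds added before stimulation of receptor with agonist DAMGO.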 The format is functional.
For assay [14], the target named is T7, Delta-type opioid receptor (Homo sapiens, UniProt P41143). Description: DOR agonists, SAR follow-up, image-based (AID 2370). Type of assay: functional.
Assay [15] concerns the target T6, Kappa-type opioid receptor. As to the kind of experiment: kappa opioid receptor activation potency – imaging, image-based, SAR follow-up (AID 2359). The format is functional.
In assay [16] the target is T6, Kappa-type opioid receptor. Description: SAR analysis of small molecule agonists of the kappa opioid receptor via a luminescent beta-arrestin assay. [Related pubchem assays (depositor defined):AID1777, AID1786, AID1966, AID2133, AID2136, AID2348, AID2352, AID2357, AID2359, AID2370, AID2420, AID2478, AID2491, AID2492, AID2493, AID2497, AID2498, AID2500, AID449737, AID488822, AID488842]. The format is functional.

For assay [17], the target named is T7, Delta-type opioid receptor. As to the kind of experiment: delta opioid receptor blockers – image-based, SAR follow-up (AID 2357). Type of assay: functional.

For four molecules, IC50 and EC50 results are on record in ChEMBL document CHEMBL1201862, “PubChem BioAssay data set” (2004).

Calls of active or inactive are those of the source.

T3 sequence (P09923 whole entry): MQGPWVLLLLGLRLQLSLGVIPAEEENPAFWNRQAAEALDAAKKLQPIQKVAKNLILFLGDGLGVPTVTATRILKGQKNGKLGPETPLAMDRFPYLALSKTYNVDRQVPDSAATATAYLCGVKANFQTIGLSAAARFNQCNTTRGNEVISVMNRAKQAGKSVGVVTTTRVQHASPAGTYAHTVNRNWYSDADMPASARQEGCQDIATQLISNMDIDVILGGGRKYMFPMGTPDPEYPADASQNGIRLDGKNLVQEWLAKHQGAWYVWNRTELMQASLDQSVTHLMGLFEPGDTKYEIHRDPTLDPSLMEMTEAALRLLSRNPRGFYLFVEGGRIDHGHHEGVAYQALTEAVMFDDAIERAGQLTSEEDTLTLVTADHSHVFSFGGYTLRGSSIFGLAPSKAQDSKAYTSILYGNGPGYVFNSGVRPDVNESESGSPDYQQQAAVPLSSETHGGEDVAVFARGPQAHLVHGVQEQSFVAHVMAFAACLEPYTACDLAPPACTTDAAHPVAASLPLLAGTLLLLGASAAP
T6 sequence (P41145 whole entry): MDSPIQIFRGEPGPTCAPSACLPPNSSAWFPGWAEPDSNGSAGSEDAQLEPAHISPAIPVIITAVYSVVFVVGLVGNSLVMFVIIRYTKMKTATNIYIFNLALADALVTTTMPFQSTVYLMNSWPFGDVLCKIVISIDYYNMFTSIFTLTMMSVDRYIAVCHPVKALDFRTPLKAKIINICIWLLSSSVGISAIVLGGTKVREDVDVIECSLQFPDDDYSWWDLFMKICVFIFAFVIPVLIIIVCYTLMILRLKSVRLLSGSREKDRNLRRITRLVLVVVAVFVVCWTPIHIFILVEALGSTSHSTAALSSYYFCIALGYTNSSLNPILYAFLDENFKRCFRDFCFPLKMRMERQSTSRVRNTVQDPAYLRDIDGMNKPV
T7 sequence (P41143 whole entry): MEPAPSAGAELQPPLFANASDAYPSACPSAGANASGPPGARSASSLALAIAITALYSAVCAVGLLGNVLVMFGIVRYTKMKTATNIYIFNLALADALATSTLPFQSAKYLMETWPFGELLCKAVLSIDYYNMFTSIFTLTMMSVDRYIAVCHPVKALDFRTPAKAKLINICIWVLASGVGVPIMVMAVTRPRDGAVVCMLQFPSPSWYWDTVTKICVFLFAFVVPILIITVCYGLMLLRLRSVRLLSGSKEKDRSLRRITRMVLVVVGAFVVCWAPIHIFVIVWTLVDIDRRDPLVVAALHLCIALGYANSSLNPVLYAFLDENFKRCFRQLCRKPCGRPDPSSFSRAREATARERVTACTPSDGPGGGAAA
T5 sequence (P35372 whole entry): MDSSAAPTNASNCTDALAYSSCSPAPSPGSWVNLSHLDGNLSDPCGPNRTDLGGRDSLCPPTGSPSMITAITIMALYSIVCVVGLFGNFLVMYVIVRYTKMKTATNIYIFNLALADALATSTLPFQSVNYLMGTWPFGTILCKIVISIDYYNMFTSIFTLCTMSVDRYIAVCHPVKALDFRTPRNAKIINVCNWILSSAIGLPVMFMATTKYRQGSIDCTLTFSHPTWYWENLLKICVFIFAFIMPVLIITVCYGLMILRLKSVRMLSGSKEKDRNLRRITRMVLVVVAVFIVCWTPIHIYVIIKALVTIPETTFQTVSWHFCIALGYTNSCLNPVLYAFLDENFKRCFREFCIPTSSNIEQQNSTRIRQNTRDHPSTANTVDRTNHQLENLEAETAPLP
T1 sequence (P24822 whole entry): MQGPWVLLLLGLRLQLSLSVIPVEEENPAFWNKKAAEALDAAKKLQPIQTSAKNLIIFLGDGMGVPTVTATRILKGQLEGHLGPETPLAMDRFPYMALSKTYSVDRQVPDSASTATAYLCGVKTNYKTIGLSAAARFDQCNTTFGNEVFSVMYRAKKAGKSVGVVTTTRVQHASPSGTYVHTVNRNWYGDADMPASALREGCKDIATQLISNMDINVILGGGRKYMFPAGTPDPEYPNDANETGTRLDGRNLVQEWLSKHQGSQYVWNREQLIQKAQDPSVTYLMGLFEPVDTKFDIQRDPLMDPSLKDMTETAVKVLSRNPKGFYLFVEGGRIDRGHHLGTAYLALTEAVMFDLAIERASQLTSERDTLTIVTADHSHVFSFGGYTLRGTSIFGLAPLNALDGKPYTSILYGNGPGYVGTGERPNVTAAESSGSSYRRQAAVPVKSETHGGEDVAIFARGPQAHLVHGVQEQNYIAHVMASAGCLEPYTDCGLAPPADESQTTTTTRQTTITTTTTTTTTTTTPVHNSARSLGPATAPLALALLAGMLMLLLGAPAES
Chain of Large T antigen (P03070 whole entry): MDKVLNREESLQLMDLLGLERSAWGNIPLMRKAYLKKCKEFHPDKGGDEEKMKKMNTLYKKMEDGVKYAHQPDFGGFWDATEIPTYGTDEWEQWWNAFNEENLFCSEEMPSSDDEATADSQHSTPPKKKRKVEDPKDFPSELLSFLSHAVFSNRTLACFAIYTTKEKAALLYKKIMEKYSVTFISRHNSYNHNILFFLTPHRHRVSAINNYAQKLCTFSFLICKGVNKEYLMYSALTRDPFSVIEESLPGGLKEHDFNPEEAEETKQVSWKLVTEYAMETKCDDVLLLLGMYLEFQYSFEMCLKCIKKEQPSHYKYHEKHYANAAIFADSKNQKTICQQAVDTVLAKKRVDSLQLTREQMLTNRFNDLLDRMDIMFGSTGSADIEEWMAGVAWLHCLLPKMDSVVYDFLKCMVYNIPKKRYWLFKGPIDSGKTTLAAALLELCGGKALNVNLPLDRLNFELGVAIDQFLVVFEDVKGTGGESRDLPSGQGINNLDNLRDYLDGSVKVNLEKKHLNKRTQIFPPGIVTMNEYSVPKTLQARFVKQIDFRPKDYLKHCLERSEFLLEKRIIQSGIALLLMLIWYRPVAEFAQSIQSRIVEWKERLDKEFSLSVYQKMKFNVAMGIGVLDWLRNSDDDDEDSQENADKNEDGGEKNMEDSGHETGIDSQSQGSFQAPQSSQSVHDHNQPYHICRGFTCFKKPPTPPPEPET
Chain of Phosphomannomutase 2 (O15305 whole entry): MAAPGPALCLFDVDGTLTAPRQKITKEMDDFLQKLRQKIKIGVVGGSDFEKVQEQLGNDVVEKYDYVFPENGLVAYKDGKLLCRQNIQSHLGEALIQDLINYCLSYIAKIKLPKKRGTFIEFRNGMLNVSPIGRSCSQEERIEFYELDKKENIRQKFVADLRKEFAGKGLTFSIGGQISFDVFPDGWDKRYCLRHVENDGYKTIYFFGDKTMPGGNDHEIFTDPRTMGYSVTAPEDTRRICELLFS
Chain of Eukaryotic translation initiation factor 4E (P63073 whole entry): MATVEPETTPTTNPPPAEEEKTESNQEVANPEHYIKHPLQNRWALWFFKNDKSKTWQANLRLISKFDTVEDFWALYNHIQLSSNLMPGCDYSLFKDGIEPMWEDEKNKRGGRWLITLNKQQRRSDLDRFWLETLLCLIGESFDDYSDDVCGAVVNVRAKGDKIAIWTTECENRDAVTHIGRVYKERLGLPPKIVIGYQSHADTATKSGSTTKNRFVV

`Oc1cc(O)c2c(c1)OC(c1ccc(O)c(O)c1)C(O)C2` (centres undefined): the IC50 – broadly, the concentration needed to halve the response being measured – was 24.1 µM (active) in assay [1], > 100 µM (inactive) in assay [2], > 100 µM (inactive) in assay [3] and 8.64 µM (active) on Large T antigen.
On to `Cc1nc2c3ccccc3nc(NNC(=O)CCC(=O)NCCC(C)C)n2n1`, for which the EC50 (commonly the concentration that produces a half-maximal response) was 19.2 µM (active) in [4], 7.93 µM (active) in [6] and 12.5 µM (active) in assay [7]. Moreover, the 50% inhibitory concentration (IC50) in assay [5] was 50.4 µM (active).
Turning to `COc1cc(/N=c2\ssnc2Cl)c(OC)cc1Cl`, the IC50 was 97.3 µM (active) at Phosphomannomutase 2, 15.2 µM (active) in assay [8], 3.12 µM (active) in [9] and 6.24 µM (active) in [10].
Consider `COc1ccc(CC2(CO)CCN(Cc3nccn3-c3cccc(C)c3)CC2)cc1`, for which the EC50 on Mu-type opioid receptor [11] is > 32 µM (inactive); in [14] it was > 32 µM (inactive); in assay [15], > 32 µM (inactive); in assay [16], > 10 µM (inactive). Further, the IC50 (in [12]; on Mu-type opioid receptor [13]; in assay [17]) was > 32 µM (inactive) each time.
